Assay results as given in US4954504A, “N9 -cyclopentyl-substituted adenine derivatives having adenosine-2 receptor stimulating activity” (Ciba-Geigy Corporation, priority 1988, dated 1990).
Counter-ions that a name gives are not always drawn.

System: collagen-induced platelet aggregation
Assay: Inhibition of collagen-induced platelet aggregation in human plasma
Format: cell-based

- IC50: ~1.5 µM
SMILES: CCNC(=O)[C@H]1C[C@@H](n2cnc3c(N)nc(NCCc4ccc(CCC(=O)O)cc4)nc32)[C@H](O)[C@@H]1O (relative stereo) [Example 7a, 2-alpha,3-alphadihydroxy-4β-[2-(p-carboxyethyl-phenethylamino)-9-adenyl]-cyclopentane-1β-N-ethylcarboxamide hydrochloride]
